Experimental data reported in US11679108B2, “Aromatic heterocyclic compound, and pharmaceutical composition and use thereof” (GUANGZHOU HENOVCOM BIOSCIENCE CO., LTD., priority 2018, dated 2023).

Molecular target: ATX (Homo sapiens, UniProt Q13822)
Test: Analysis in vitro: LPC was used as substrate for screening enzyme activity (Amplex Red fluorescence)
Format: biochemical
Settings: inhibitory activity against ATX, with LPC as substrate
Source text: Analysis In Vitro: LPC was Used as Substrate for Screening Enzyme Activity
Principle: Lysophosphatidylcholine (LPC) as substrate is hydrolyzed by using the activity of lysoPLD enzyme, to produce lysophosphatidic acid (LPA) and choline, which is oxidized to produce H2O2 under the action of choline oxidase. In presence of horse radish peroxidase (HPR), Amplex Red reagent is reacted with H2O2 in a quantitative chemistry ratio of 1 to 1, to produce strong fluorescence products, which are detected by a fluorescent quantitative test.
Experimental procedures: the compounds to be tested were dissolved in DMSO, to prepare 10 mM of stock solution, which was diluted in a gradient concentration of 3 times with DMSO from 10 mM, to generate 10 concentration gradients. The reaction buffer solution was used for preparing a mixed solution 1 of 2 ng/μl ATX, 2 U/ml HRP and 0.2 U/ml choline oxidase in a final concentration. 20 μl of the above mixed solution 1 was added to each hole of an experiment board, […]. The compounds diluted with DMSO were transferred into an experiment board with Echo550. The reaction buffer solution was used for preparing a mixed solution 2 of […] LPC and 400 μM Amplex Red in a final concentration. 20 μl of the above mixed solution 2 was added to each hole of the experiment board. After addition, the experiment board was shook for 30 seconds on a shaker, and incubated for 30 minutes. Envision was used to read the fluorescence signals with an exciting light at 530 nm and emitted light at 590 nm. Inhibition ratio of the compounds to enzyme reaction was calculated according to the ratio of fluorescence, and IC50 of the compounds was analyzed and calculated by software, seeing Table 1.

IC50 [nM]	Structure (SMILES)
0.01 to 100	CCc1nc2sc(N3CC[C@@H](N(C=O)CC(=O)N4CC(O)C4)C3)nn2c1N(C)c1nc(-c2ccc(F)cc2)c(C#N)s1 [Example 91, (R)—N-{1-[5-((5-cyano-4-(4-fluorophenyl)thiazol-2-yl)(methyl)amino)-6-ethylimidazo[2,1-b][1,3,4]thiadiazol-2-yl]pyrrolidin-3-yl}-N-(2-(3-hydroxyazetidin-1-yl)-2-oxoethyl)formamide]

Molecular target: T1, ATX in human plasma (Homo sapiens, UniProt Q13822)
T1 construct: blank plasma was derived from at least 6 individual people; from tissue; host or cells: human plasma (pooled from at least 6 individuals)
Test: Analysis in vitro: detection of LPA in human plasma for screening activity (LPA 18:2 by LC/MS/MS)
Format: biochemical
Settings: incubated 2 hours at 37° C., LPA 18:2 detected by LC/MS/MS
Source text: Analysis In Vitro: Detection of LPA in Human Plasma for Screening Activity
Principle: LPC in plasma being used as a substrate, the produced LPA 18:2 (LPA 17:0 as an internal standard) is detected by LC/MS/MS quantitative analysis. At different concentrations of the compounds to be tested, the percentage of residual activity is obtained by the ratio of the production of LPA18:2 to that in the absence of the compounds to be tested, thereby calculating IC50 values.
Experiment procedures: blank plasma was derived from at least 6 individual people. The compounds to be tested were diluted from stock solution in 3-fold dilution gradient, to produce 8 concentrations of working solution (with zero) in series. 10 μL of the melting blank plasma samples were taken and iced methanol solution containing internal standard (LPA 17:0) was added to it, so that the mixture directedly performed protein precipitation, which served as a system control sample. 2 μL of the working solution in different concentration was taken and 198 μL of blank human plasma was added, which was incubated with a concentration of 0 to 10 μM. The samples were placed at an incubater containing 5% CO2 at 37° C., and incubated for 2 hours. When the incubation was completed, 10 μL of plasma sample was taken and appropriate volume of iced methanol solution containing internal standard (LPA 17:0) was added into it, so that the mixture directedly performed protein precipitation. The precipitation was centrifuged to take supernatant. LPA 18:2 was detected by LC/MS/MS and IC50 values were analyzed and calculated by software, seeing Table 2.

IC50 [nM]	Structure (SMILES)
100 to 500	CCc1nc2sc(N3C[C@H](C)N(CC(=O)N4CC(O)C4)[C@@H](C)C3)nn2c1N(C)c1nc(-c2ccc(F)cc2)c(C#N)s1 (relative stereo) [Example 73, trans-2-{[6-ethyl-2-(4-(2-(3-hydroxyazetidin-1-yl)-2-oxoethyl)-3,5-dimethylpiperazin-1-yl)imidazo[2,1-b][1,3,4]thiadiazol-5-yl](methyl)amino}-4-(4-fluorophenyl)thiazole-5-carbonitrile]
0.01 to 100	CCc1nc2sc(N3C[C@H](C)N(CC(=O)N4CC(O)C4)C[C@H]3C)nn2c1N(C)c1nc(-c2ccc(F)cc2)c(C#N)s1 (relative stereo) [Example 76, trans-2-{[6-ethyl-2-(4-(2-(3-hydroxyazetidin-1-yl)-2-oxoethyl)-2,5-dimethylpiperazin-1-yl)imidazo[2,1-b][1,3,4]thiadiazol-5-yl](methyl)amino}-4-(4-fluorophenyl)thiazole-5-carbonitrile]
500 to 1000	CCc1nc2sc(N3CCN(C(N)=O)CC3)nn2c1N(C)c1nc(-c2ccc(F)cc2)c(C#N)s1 [Example 7, 4-{5-[(5-cyano-4-(4-fluorophenyl)thiazol-2-yl)(methyl)amino]-6-ethylimidazo[2,1-b][1,3,4]thiadiazol-2-yl}piperazine-1-carboxamide]
500 to 1000	CCc1nc2sc(N3CC4(CN(C(N)=O)C4)C3)nn2c1N(C)c1nc(-c2ccc(F)cc2)c(C#N)s1 [Example 9, 6-{5-[(5-cyano-4-(4-fluorophenyl)thiazol-2-yl)(methyl)amino]-6-ethylimidazo[2,1-b][1,3,4]thiadiazol-2-yl}-2,6-diazaspiro[3.3]heptane-2-carboxamide]
100 to 500	CCOC(=O)CN(C)C1CCN(c2nn3c(N(C)c4nc(-c5ccc(F)cc5)c(C#N)s4)c(CC)nc3s2)C1 (stereo not shown) [Example 48]
500 to 1000	CCc1nc2sc(N3CCC(N(C)CC(=O)O)C3)nn2c1N(C)c1nc(-c2ccc(F)cc2)c(C#N)s1 (stereo not shown) [Example 49, 2-{[1-(5-((5-cyano-4-(4-fluorophenyl)thiazol-2-yl)(methyl)amino)-6-ethylimidazo[2,1-b][1,3,4]thiadiazol-2-yl)pyrrolidin-3-yl](methyl)amino}acetic acid]
100 to 500	CCc1nc2sc(N3CCC(N(C)CC(=O)NCC(=O)OC)C3)nn2c1N(C)c1nc(-c2ccc(F)cc2)c(C#N)s1 (stereo not shown) [Example 50]
100 to 500	CCc1nc2sc(N3CCC(N(C)CC(=O)NCC(=O)O)C3)nn2c1N(C)c1nc(-c2ccc(F)cc2)c(C#N)s1 (stereo not shown) [Example 51]
100 to 500	CCc1nc2sc(N3CC4(CCN(CC(=O)N5CC(O)C5)C4)C3)nn2c1N(C)c1nc(-c2ccc(F)cc2)c(C#N)s1 [Example 52, 2-{[6-ethyl-2-(6-(2-(3-hydroxyazetidin-1-yl)-2-oxoethyl)-2,6-diazaspiro[3.4]octan-2-yl)imidazo[2,1-b][1,3,4]thiadiazol-5-yl](methyl)amino}-4-(4-fluorophenyl)thiazole-5-carbonitrile]
0.01 to 100	CCc1nc2sc(N3CC4(CCN(CC(=O)N5CC(C#N)C5)C4)C3)nn2c1N(C)c1nc(-c2ccc(F)cc2)c(C#N)s1 [Example 53, 2-{[6-ethyl-2-(6-(2-(3-cyanoazetidin-1-yl)-2-oxoethyl)-2,6-diazaspiro[3.4]octane-2-yl)imidazo[2,1-b][1,3,4]thiadiazol-5-yl](methyl)amino}-4-(4-fluorophenyl)thiazole-5-carbonitrile]
100 to 500	CCc1nc2sc(N3CCC4(CN(CC(=O)N5CC(O)C5)C4)C3)nn2c1N(C)c1nc(-c2ccc(F)cc2)c(C#N)s1 [Example 54, 2-{[6-ethyl-2-(2-(2-(3-hydroxyazetidin-1-yl)-2-oxoethyl)-2,6-diazaspiro[3.4]octane-6-yl)imidazo[2,1-b][1,3,4]thiadiazol-5-yl](methyl)amino}-4-(4-fluorophenyl)thiazole-5-carbonitrile]
100 to 500	CCc1nc2sc(N3CCC4(CN(CC(=O)N5CC(C#N)C5)C4)C3)nn2c1N(C)c1nc(-c2ccc(F)cc2)c(C#N)s1 [Example 55, 2-{[6-ethyl-2-(2-(2-(3-cyanoazetidin-1-yl)-2-oxoethyl)-2,6-diazaspiro[3.4]octane-6-yl)imidazo[2,1-b][1,3,4]thiadiazol-5-yl](methyl)amino}-4-(4-fluorophenyl)thiazole-5-carbonitrile]
0.01 to 100	CCc1nc2sc(N3CC4CN(CC(=O)N5CC(O)C5)CC4C3)nn2c1N(C)c1nc(-c2ccc(F)cc2)c(C#N)s1 (stereo not shown) [Example 56, 2-{[6-ethyl-2-(5-(2-(3-hydroxyazetidin-1-yl)-2-oxoethyl)hexahydropyrrolo[3,4-c]pyrrol-2(1H)-yl)imidazo[2,1-b][1,3,4]thiadiazol-5-yl](methyl)amino}-4-(4-fluorophenyl)thiazole-5-carbonitrile]
100 to 500	CCc1nc2sc(N3CC4CN(CC(=O)N5CC(C#N)C5)CC4C3)nn2c1N(C)c1nc(-c2ccc(F)cc2)c(C#N)s1 (stereo not shown) [Example 57, 2-{[6-ethyl-2-(5-(2-(3-cyanoazetidin-1-yl)-2-oxoethyl)hexahydropyrrolo[3,4-c]pyrrol-2(1H)-yl)imidazo[2,1-b][1,3,4]thiadiazol-5-yl](methyl)amino}-4-(4-fluorophenyl)thiazole-5-carbonitrile]
0.01 to 100	CCc1nc2sc(N3C[C@@H]4C[C@H]3CN4CC(=O)N3CC(O)C3)nn2c1N(C)c1nc(-c2ccc(F)cc2)c(C#N)s1 [Example 58, 2-{[6-ethyl-2-((1S,4S)-5-(2-(3-hydroxyazetidin-1-yl)-2-oxoethyl)-2,5-diazabicyclo[2.2.1]heptan-2-yl)imidazo[2,1-b][1,3,4]thiadiazol-5-yl](methyl)amino}-4-(4-fluorophenyl)thiazole-5-carbonitrile]
100 to 500	CCc1nc2sc(N3C[C@@H]4C[C@H]3CN4CC(=O)N3CC(C#N)C3)nn2c1N(C)c1nc(-c2ccc(F)cc2)c(C#N)s1 [Example 59, 2-{[6-ethyl-2-((1S,4S)-5-(2-(3-cyanoazetidin-1-yl)-2-oxoethyl)-2,5-diazabicyclo[2.2.1]heptan-2-yl)imidazo[2,1-b][1,3,4]thiadiazol-5-yl](methyl)amino}-4-(4-fluorophenyl)thiazole-5-carbonitrile]
≥ 1000	CCc1nc2sc(N3CC4CC3CO4)nn2c1N(C)c1nc(-c2ccc(F)cc2)c(C#N)s1 (stereo not shown) [Example 60, 2-{[2-(2-oxa-5-azabicyclo[2.2.1]heptan-5-yl)-6-ethylimidazo[2,1-b][1,3,4]thiadiazol-5-yl](methyl)amino}-4-(4-fluorophenyl)thiazole-5-carbonitrile]

Structure (SMILES)	IC50 [nM]
CCc1nc2sc(N3CC4CC(C3)N4CC(=O)N3CC(O)C3)nn2c1N(C)c1nc(-c2ccc(F)cc2)c(C#N)s1 [Example 61, 2-{[6-ethyl-2-(6-(2-(3-hydroxyazetidin-1-yl)-2-oxoethyl)-3,6-diazabicyclo[3.1.1]heptan-3-yl)imidazo[2,1-b][1,3,4]thiadiazol-5-yl](methyl)amino}-4-(4-fluorophenyl)thiazole-5-carbonitrile]	100 to 500
